Read-outs that look alike come from different tables or passages of the source. *1 amine or outer side, *2 acyl side, *3 side chain or, on linkers, in order; H or OH if unused. Where a SMILES comes first, the peptide text is derived from it. Bridges are numbered along the chain shown (N, C = ends). [ ]: non-standard residue; d: D form. The star is where a group is joined. X5 = NC(=O)[C@H](CCCCNC(=O)CN1CCN(CC(=O)O)CCN(CC(=O)O)CCN(CC(=O)O)CC1)NC(=O)CCC(=O)NCCCOCCOCCOCCCN*; X3 = O=C(O)CN1CCN(CC(=O)O)CCN(CC(=O)NCCCOCCOCCOCCCN*)CCN(CC(=O)O)CC1; NH(1-deoxy-D-glucityl) = OC[C@@H](O)[C@@H](O)[C@H](O)[C@@H](O)CN*; DOTA = O=C(O)CN1CCN(CC(=O)O)CCN(CC(=O)*)CCN(CC(=O)O)CC1; Trp(5-Br) = N[C@@H](Cc1c[nH]c2ccc(Br)cc12)C(=O)O; Trp(5-Cl) = N[C@@H](Cc1c[nH]c2ccc(Cl)cc12)C(=O)O; Trp(6-Cl) = N[C@@H](Cc1c[nH]c2cc(Cl)ccc12)C(=O)O; Pyridine(2,6-diCH2) = c1cc(C[*:1])nc(C[*:2])c1; Trp(6-F) = N[C@@H](Cc1c[nH]c2cc(F)ccc12)C(=O)O; 1Nal = N[C@@H](Cc1cccc2ccccc12)C(=O)O; Thz(5,5-Me2) = CC1(C)SCN[C@@H]1C(=O)O; mXylylene = c1cc(C[*:1])cc(C[*:2])c1; X7 = c1cc(CSCCN[*:2])cc(C[*:1])c1; Hyp = O=C(O)[C@@H]1C[C@@H](O)CN1; X1 = O=C(CN1CCC(N[*:1])CC1)[*:2]; pS = N[C@@H](COP(=O)(O)O)C(=O)O; Pen = CC(C)(S)[C@H](N)C(=O)O; Suc = O=C(CCC(=O)[*:2])[*:1]; Thp = NC1(C(=O)O)CCOCC1; Deg = CCC(N)(CC)C(=O)O; Aib = CC(C)(N)C(=O)O
Biological target: T1, GIPR (CHO-K1-hGIPR cells) (Homo sapiens, UniProt P48546)
T1 construct: host or cells: CHO-K1
T1 sequence (P48546 22-466): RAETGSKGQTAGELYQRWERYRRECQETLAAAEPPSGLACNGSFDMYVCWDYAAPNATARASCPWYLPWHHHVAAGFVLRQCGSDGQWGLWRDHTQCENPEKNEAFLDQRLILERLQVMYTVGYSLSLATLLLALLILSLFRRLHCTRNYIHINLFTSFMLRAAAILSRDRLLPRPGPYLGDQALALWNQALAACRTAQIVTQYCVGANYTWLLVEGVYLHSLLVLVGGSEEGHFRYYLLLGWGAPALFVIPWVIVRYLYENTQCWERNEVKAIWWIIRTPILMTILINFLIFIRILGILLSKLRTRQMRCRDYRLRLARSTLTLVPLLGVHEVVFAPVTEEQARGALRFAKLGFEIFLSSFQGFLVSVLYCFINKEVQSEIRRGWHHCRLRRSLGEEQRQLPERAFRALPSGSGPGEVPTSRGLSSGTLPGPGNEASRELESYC
Assay: FACS binding assay
Conditions: read-out: pIC50 Category (converted)
Outline: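 Steps: detach CHO-K1-hGIPR cells (Accutase); wash in PBS/1% FCS; adjust to 500.000 cells per mL; wash ice-cold; incubate APC-streptavidin 1 μg/mL, 30 min on ice; wash twice; acquire on flow cytometer; fit MFI-concentration data with a four-parameter logistic model.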

[1] = competition with 20 nM GIP-057, 4° C. for 1 hour
[2] = competition with 20 nM GIP-057, 4° C., 1 hour

Row | SMILES | IC50 [1] | IC50 [2]
1 | CC[C@H](C)[C@@H]1NC(=O)[C@H](CC(C)C)NC(=O)C(C)(C)NC(=O)[C@@H](NC(=O)[C@@H](CC(C)C)NC(=O)[C@H](CCC(=O)O)NC(=O)[C@@H]2CCCN2C(=O)[C@H](Cc2cccc3ccccc23)NC(=O)[C@H](Cc2c[nH]c3cc(F)ccc23)NC(=O)[C@H](CC(=O)O)NC(C)=O)CSCc2cccc(c2)CSC[C@@H](C(=O)NCCCOCCOCCOCCCNC(=O)CCC(=O)N[C@@H](CCCCNC(=O)CN2CCN(CC(=O)O)CCN(CC(=O)O)CCN(CC(=O)O)CC2)C(N)=O)NC1=O [GIP-084, Ac-Asp-6Fw-Ni-Pro-Glu-leu-[Cys(3MeBn)-Aib-Leu-Ile-Cys]-Ttds-Lys(DOTA)-NH2] (Ac-D[Trp(6-F)][1Nal]PE[dL]C[Aib]LIC-X5; linker 7-11 via mXylylene) |  | < 10 nM
2 | CC[C@H](C)[C@@H]1NC(=O)[C@H](CC(C)C)NC(=O)C2(CCOCC2)NC(=O)[C@@H](NC(=O)[C@@H](CC(C)C)NC(=O)[C@H](CC(=O)O)NC(=O)[C@@H]2C[C@@H](O)CN2C(=O)[C@H](Cc2c[nH]c3ccc(Cl)cc23)NC(=O)[C@H](Cc2c[nH]c3ccccc23)NC(=O)[C@H](CC(=O)O)NC(C)=O)CSCc2cccc(n2)CSC[C@@H](C(N)=O)NC1=O [GIP-192, Ac-Asp-Trp-5Clw-Hyp-Asp-leu-[Cys(2Lut)-Thp-Leu-Ile-Cys]-NH2] (Ac-DW[Trp(5-Cl)][Hyp]D[dL]C[Thp]LIC-NH2; linker 7-11 via Pyridine(2,6-diCH2)) |  | < 10 nM
3 | CC[C@H](C)[C@@H]1NC(=O)[C@H](CC(C)C)NC(=O)C2(CCOCC2)NC(=O)[C@@H](NC(=O)[C@@H](CC(C)C)NC(=O)[C@H](CCC(=O)O)NC(=O)[C@@H]2C[C@@H](O)CN2C(=O)[C@H](Cc2c[nH]c3ccc(Cl)cc23)NC(=O)[C@H](Cc2c[nH]c3ccccc23)NC(=O)[C@H](CC(=O)O)NC(=O)[C@@H](CCC(=O)NC[C@H](O)[C@@H](O)[C@H](O)[C@H](O)CO)NC(=O)CN2CCN(CC(=O)O)CCN(CC(=O)O)CCN(CC(=O)O)CC2)CSCc2cccc(n2)CSC[C@@H](C(=O)NC2CCN(CC(=O)N[C@H](CCC(=O)NC[C@H](O)[C@@H](O)[C@H](O)[C@H](O)CO)C(N)=O)CC2)NC1=O [GIP-036, DOTA-glu(AGLU)-Asp-Trp-5Clw-Hyp-Glu-leu-[Cys(2Lut)-Thp-Leu-Ile-Cys]-APAc-glu(AGLU)-NH2] ({DOTA}-[dE](NH(1-deoxy-D-glucityl))DW[Trp(5-Cl)][Hyp]E[dL]C[Thp]LIC[X1][dE](NH(1-deoxy-D-glucityl))-NH2; linker 8-12 via Pyridine(2,6-diCH2)) |  | < 10 nM
4 | CC[C@H](C)[C@@H]1NC(=O)[C@H](CC(C)C)NC(=O)C(C)(C)NC(=O)[C@@H](NC(=O)[C@@H](CC(C)C)NC(=O)[C@H](CCC(=O)O)NC(=O)[C@@H]2CCCN2C(=O)[C@H](Cc2c[nH]c3ccc(Br)cc23)NC(=O)[C@H](Cc2c[nH]c3cc(F)ccc23)NC(=O)[C@H](CC(=O)O)NC(=O)CCC(=O)NCCCOCCOCCOCCCNC(=O)CN2CCN(CC(=O)O)CCN(CC(=O)O)CCN(CC(=O)O)CC2)CSCc2cccc(c2)CSCCNC1=O [GIP-105, DOTA-Ttds-Asp-6Fw-5Brw-Pro-Glu-leu-[Cys(3MeBn)-Aib-Leu-Ile-AET]] ({X3-Suc}-D[Trp(6-F)][Trp(5-Br)]PE[dL]C[Aib]LI; linker 7-C via X7) |  | < 10 nM
5 | CC[C@H](C)[C@@H]1NC(=O)[C@H](CC(C)C)NC(=O)C(CC)(CC)NC(=O)[C@@H](NC(=O)[C@@H](CC(C)C)NC(=O)[C@H](CCC(=O)O)NC(=O)[C@@H]2CCCN2C(=O)[C@H](Cc2cccc3ccccc23)NC(=O)[C@H](Cc2c[nH]c3ccccc23)NC(=O)[C@H](CC(=O)O)NC(C)=O)CSCc2cccc(c2)CSC[C@@H](C(=O)NCCCOCCOCCOCCCNC(=O)CCC(=O)N[C@@H](CCCCNC(=O)CN2CCN(CC(=O)O)CCN(CC(=O)O)CCN(CC(=O)O)CC2)C(N)=O)NC1=O [GIP-139, Ac-Asp-Trp-1Ni-Pro-Glu-leu-[Cys(3MeBn)-Deg-Leu-Ile-Cys]-Ttds-Lys(DOTA)-NH2] (Ac-DW[1Nal]PE[dL]C[Deg]LIC-X5; linker 7-11 via mXylylene) |  | 10 to 79.4 nM
6 | CC[C@H](C)[C@@H]1NC(=O)[C@H](CC(C)C)NC(=O)C(C)(C)NC(=O)[C@@H](NC(=O)[C@@H](CC(C)C)NC(=O)[C@H](CCC(=O)O)NC(=O)[C@@H]2CCCN2C(=O)[C@H](Cc2c[nH]c3ccccc23)NC(=O)[C@H](Cc2c[nH]c3cc(Cl)ccc23)NC(=O)[C@H](CC(=O)O)NC(=O)CCC(=O)NCCCOCCOCCOCCCNC(=O)CN2CCN(CC(=O)O)CCN(CC(=O)O)CCN(CC(=O)O)CC2)CSCc2cccc(c2)CSCCNC1=O [GIP-141, DOTA-Ttds-Asp-6Clw-Trp-Pro-Glu-leu-[Cys(3MeBn)-Aib-Leu-Ile-AET]] ({X3-Suc}-D[Trp(6-Cl)]WPE[dL]C[Aib]LI; linker 7-C via X7) |  | 10 to 79.4 nM

The next lines start with the values.

Row | IC50 [1] | IC50 [2] | SMILES
7 | 10 to 79.4 nM |  | CC[C@H](C)[C@@H]1NC(=O)[C@H](CC(C)C)NC(=O)[C@H](C)NC(=O)[C@@H](NC(=O)[C@H](CC(C)C)NC(=O)[C@H](CCC(=O)O)NC(=O)[C@@H]2CCCN2C(=O)[C@H](Cc2c[nH]c3ccccc23)NC(=O)[C@H](Cc2c[nH]c3ccccc23)NC(=O)CCC(=O)O)CSCc2cccc(c2)CSC[C@@H](C(N)=O)NC1=O [GIP-255, HO-Succinyl-Trp-Trp-Pro-Glu-Leu-[Cys(3MeBn)-Ala-Leu-Ile-Cys]-NH2] (Suc-WWPELCALIC-NH2; linker 6-10 via mXylylene)
8 | > 1000 nM |  | CC[C@H](C)[C@@H]1NC(=O)[C@@H](CC(C)C)NC(=O)[C@H](C)NC(=O)[C@@H](NC(=O)[C@H](CC(C)C)NC(=O)[C@H](CCC(=O)O)NC(=O)[C@@H]2CCCN2C(=O)[C@H](Cc2c[nH]c3ccccc23)NC(=O)[C@H](Cc2c[nH]c3ccccc23)NC(=O)[C@H](CC(=O)O)NC(=O)[C@H](Cc2ccc(O)cc2)NC(=O)[C@@H](N)CCSC)CSCc2cccc(c2)CSC[C@@H](C(N)=O)NC1=O [GIP-330] (H-MYDWWPELCA[dL]IC-NH2; linker 9-13 via mXylylene)
9 | > 1000 nM |  | CC[C@H](C)[C@@H]1NC(=O)[C@H](CC(C)C)NC(=O)C(C)(C)NC(=O)[C@@H](NC(=O)[C@H](CC(C)C)NC(=O)[C@H](CCC(=O)O)NC(=O)[C@@H]2CCCN2C(=O)[C@H](Cc2c[nH]c3ccccc23)NC(=O)[C@H](Cc2c[nH]c3ccccc23)NC(=O)[C@H](CC(=O)O)NC(C)=O)C(C)(C)SCc2cccc(c2)CSC[C@@H](C(N)=O)NC1=O [GIP-338, Ac-Asp-Trp-Trp-Pro-Glu-Leu-[Pen(3MeBn)-Aib-Leu-Ile-Cys]-NH2] (Ac-DWWPEL[Pen][Aib]LIC-NH2; linker 7-11 via mXylylene)
10 | > 1000 nM |  | CC(=O)N[C@@H](CC(=O)O)C(=O)N[C@@H](Cc1c[nH]c2ccccc12)C(=O)N[C@@H](Cc1c[nH]c2ccc(Cl)cc12)C(=O)N1C[C@H](O)C[C@H]1C(=O)N[C@@H](CCC(=O)O)C(=O)N[C@H](CC(C)C)C(=O)N[C@H]1CSCc2cccc(n2)CSC[C@@H](C(N)=O)NC(=O)[C@H](CCC(=O)O)NC(=O)[C@H](CC(C)C)NC(=O)C2(CCOCC2)NC1=O [GIP-354, Ac-Asp-Trp-5Clw-Hyp-Glu-leu-[Cys(2Lut)-Thp-Leu-Glu-Cys]-NH2] (Ac-DW[Trp(5-Cl)][Hyp]E[dL]C[Thp]LEC-NH2; linker 7-11 via Pyridine(2,6-diCH2))
11 |  | < 10 nM | CC[C@H](C)[C@@H]1NC(=O)[C@H](CC(C)C)NC(=O)C2(CCOCC2)NC(=O)[C@@H](NC(=O)[C@@H](CC(C)C)NC(=O)[C@H](CCC(=O)O)NC(=O)[C@H]2N(C(=O)[C@H](Cc3c[nH]c4ccc(Cl)cc34)NC(=O)[C@H](Cc3c[nH]c4ccccc34)NC(=O)[C@H](CC(=O)O)NC(C)=O)CSC2(C)C)CSCc2cccc(n2)CSC[C@@H](C(N)=O)NC1=O [GIP-215, Ac-Asp-Trp-5Clw-Dtc-Glu-leu-[Cys(2Lut)-Thp-Leu-Ile-Cys]-NH2] (Ac-DW[Trp(5-Cl)][Thz(5,5-Me2)]E[dL]C[Thp]LIC-NH2; linker 7-11 via Pyridine(2,6-diCH2))
12 |  | < 10 nM | CC[C@H](C)[C@@H]1NC(=O)[C@H](CC(C)C)NC(=O)C2(CCOCC2)NC(=O)[C@@H](NC(=O)[C@@H](CC(C)C)NC(=O)[C@H](CCC(=O)O)NC(=O)[C@@H]2C[C@@H](O)CN2C(=O)[C@H](Cc2c[nH]c3ccc(Cl)cc23)NC(=O)[C@H](Cc2c[nH]c3ccccc23)NC(=O)[C@H](COP(=O)(O)O)NC(C)=O)CSCc2cccc(n2)CSC[C@@H](C(N)=O)NC1=O [GIP-207, Ac-Pse-Trp-5Clw-Hyp-Glu-leu-[Cys(2Lut)-Thp-Leu-Ile-Cys]-NH2] (Ac-[pS]W[Trp(5-Cl)][Hyp]E[dL]C[Thp]LIC-NH2; linker 7-11 via Pyridine(2,6-diCH2))
